The numbers were not newly measured in PMC13472183 (Journal of drug delivery science and technology, 2022), which cites them from elsewhere.

For this series the following is noted: previous reported value, without the EDA modification.

As for NH2-(VPGFG)6G-(GPO)7GG-CONH2 [F6-GPO7], the “Tm (triple helix melting temperature)” value is 50 °C.
